Results from ChEMBL document CHEMBL1212812, “Multi-target spectral moment QSAR versus ANN for antiparasitic drugs against different parasite species” (Bioorg Med Chem, 2010).

These molecules were tested on Plasmodium falciparum (assay: Antimicrobial activity against Plasmodium falciparum).
Assay type: functional, organism-based

| SMILES | IC50 |
| --- | --- |
| CC[C@H]1CN2CCc3c([nH]c4ccc(O)cc34)[C@@H]2C[C@@H]1C[C@H]1c2[nH]c3ccccc3c2CCN1C | 1 µM |
| COc1cc(NC(C)CCCN)c2nccc(C)c2c1OCCCCCc1ccccc1C(F)(F)F (stereo not drawn) | 5 µM |
| COc1cc(NC(C)CCCN)c2nccc(C)c2c1OCCCCCc1ccc(C(F)(F)F)cc1 (stereo not drawn) | 2 µM |
| COc1cc(NC(C)CCCN)c2nccc(C)c2c1OCCCCCc1c(C)cccc1C (stereo not drawn) | 22 µM |
| N/C(=N\O)c1ccc(O)c(O)c1 | 23 µM |
| CC1(C)CCc2c(c3ccccc3c3nc4ccccc4nc23)O1 | 20 µM |
| CCN(CC)Cc1cc(Nc2ccnc3cc(Cl)ccc23)ccc1O | 15 µM |
| CCc1nc(N)nc(N)c1Cc1ccc(OCc2ccccc2)c(OCc2ccccc2)c1 | 3 µM |
| O=C(NO)c1cccc(O)c1O | 6 µM |
| COc1ccc(Cc2cnc(N)nc2N)cc1OCc1ccccc1 | 4 µM |
| COc1cc(Cc2c(C)nc(N)nc2N)cc(OC)c1OC | 23 µM |
| NNC(=O)c1ccc(N2CCN(c3ccc(C(=O)NN)cc3)CC2)cc1 | 1 µM |
| O=C(NO)c1ccc(O)c(O)c1 | 16 µM |
| CCc1nc(N)nc(N)c1Cc1cc(OC)c(OC)c(OC)c1 | 50 µM |
| CCOC(=O)c1ccc(N2CCN(c3ccc(C(=O)OCC)cc3)CC2)cc1 | 1 µM |
| CO[C@H]1O[C@@H]2O[C@@]3(C)CC[C@H]4[C@H](C)CC[C@@H]([C@H]1C)[C@@]24OO3 | 1000 µM |
| NC(=O)C1C2c3ccccc3C(c3ccccc32)C1C(N)=O (single isomer, unassigned) | 42 µM |
| CCCNC(=O)CC[C@@H](C)[C@H]1CC[C@H]2[C@@H]3[C@H](OC(C)=O)C[C@@H]4CC5(CC[C@]4(C)[C@H]3CC[C@]12C)OOC1(CCC(CC)CC1)OO5 (single isomer, unassigned; form 2) | 1 µM |
| CCCCN(CC)C(P(=O)(O)O)P(=O)(O)O [(BUTYL(ETHYL)AMINO)METHYLENEDIPHOSPHONIC ACID] | 200 µM |
| O=P(O)(O)C(NC1CCCCCCC1)P(=O)(O)O [(CYCLOOCTYLAMINO)METHYLENEDIPHOSPHONIC ACID] | 200 µM |
| O=P(O)(O)C(NC1CC1)P(=O)(O)O [(CYCLOPROPYLAMINO)METHYLENEDIPHOSPHONIC ACID] | 200 µM |
| CC(C)N(C(C)C)C(P(=O)(O)O)P(=O)(O)O [(DIISOPROPYLAMINO)METHYLENEDIPHOSPHONIC ACID] | 200 µM |
| CN(C)CCC=C1c2ccccc2CCc2ccccc21 [AMITRIPTYLINE] | 558 µM |

| SMILES | IC50 |
| --- | --- |
| Oc1ccc(Nc2ccnc3cc(Cl)ccc23)cc1CN1CCCC1 [AMOPYROQUINE] | 30 µM |
| C[C@H]1[C@@H](O)O[C@@H]2O[C@@]3(C)CC[C@H]4[C@H](C)CC[C@@H]1[C@@]24OO3 [ARTENIMOL] | 1000 µM |
| C[C@H]1[C@H](OC(=O)CCC(=O)O)O[C@@H]2O[C@@]3(C)CC[C@H]4[C@H](C)CC[C@@H]1[C@@]24OO3 [ARTESUNATE] | 3 µM |
| O=C1C(O)=C([C@H]2CC[C@H](c3ccc(Cl)cc3)CC2)C(=O)c2ccccc21 [ATOVAQUONE] | 1 µM |
| O=C(NO)c1ccccc1 [BENZOHYDROXAMATE] | 17 µM |
| c1ccc2c(c1)ccc1nc3ccccc3nc12 [BENZO[A]PHENAZINE] | 20 µM |
| C=C[C@H]1CN2CC[C@H]1C[C@H]2[C@H](O)c1ccnc2ccccc12 [CINCHONIDINE] | 27 µM |
| C=C[C@H]1CN2CC[C@H]1C[C@@H]2[C@@H](O)c1ccnc2ccccc12 [CINCHONINE] | 23 µM |
| CN(C)CCCC1(c2ccc(F)cc2)OCc2cc(C#N)ccc21 (stereo not drawn) [CITALOPRAM] | 222 µM |
| CC1(C)N=C(N)N=C(N)N1c1ccc(Cl)cc1 [CYCLOGUANIL] | 3 µM |
| CC(CCCN1CCCC1)Nc1ccnc2cc(Cl)ccc12 (stereo not drawn) [Chloroquine-pyrolidinyl] | 44 µM |
| CCN(CC)Cc1cc(Nc2ccnc3cc(Cl)ccc23)cc(-c2ccc(Cl)cc2)c1 [DEHYDROXY TEBAQUINE] | 51 µM |
| CCNCc1cc(Nc2ccnc3cc(Cl)ccc23)ccc1O [DESETHYL AMODIAQUINE] | 73 µM |
| CCNCCCC(C)Nc1ccnc2cc(Cl)ccc12 (stereo not drawn) [DESETHYLCHLOROQUINE] | 3 µM |
| C[C@H]1c2cccc(O)c2C(=O)C2=C(O)[C@]3(O)C(=O)C(C(N)=O)=C(O)[C@@H](N(C)C)[C@@H]3[C@@H](O)[C@@H]21 [DOXYCYCLINE] | 18 µM |
| CC[C@H]1OC(=O)[C@H](C)[C@@H](O[C@H]2C[C@@](C)(OC)[C@@H](O)[C@H](C)O2)[C@H](C)[C@@H](O[C@@H]2O[C@H](C)C[C@H](N(C)C)[C@H]2O)[C@](C)(O)C[C@@H](C)C(=O)[C@H](C)[C@@H](O)[C@]1(C)O [ERYTHROMYCIN] | 18 µM |
| Cc1c(OCC(F)(F)F)ccnc1C[S+]([O-])c1nc2ccccc2[nH]1 (stereo not drawn) [LANSOPRAZOLE] | 11 µM |
| OC(c1cc(C(F)(F)F)nc2c(C(F)(F)F)cccc12)C1CCCCN1 (stereo not drawn) [MEFLOQUINE] | 5 µM |
| CN(C)c1ccc(O)c2c1C[C@H]1C[C@H]3[C@H](N(C)C)C(O)=C(C(N)=O)C(=O)[C@@]3(O)C(O)=C1C2=O [MINOCYCLINE] | 3 µM |
| CCn1cc(C(=O)O)c(=O)c2cc(F)c(N3CCNCC3)cc21 [NORFLOXACIN] | 75 µM |
| Cn1cnc2c(NCc3ccccc3)nc(NCCO)nc21 [OLOMOUCINE] | 3 µM |
| COc1ccc2[nH]c([S+]([O-])Cc3ncc(C)c(OC)c3C)nc2c1 (stereo not drawn) [OMEPRAZOLE] | 76 µM |
| CCCCC1C(=O)N(c2ccccc2)N(c2ccc(O)cc2)C1=O (stereo not drawn) [OXYPHENBUTAZONE ANHYDROUS] | 15 µM |

Second part, the molecule after the results:

| IC50 | SMILES |
| --- | --- |
| 32 µM | Cn1c2nc3ccccc3c-2cc2c(Br)cccc21 |
| 5 µM | CCc1nc(N)nc(N)c1Cc1ccc(OCc2ccccc2)c(OC)c1 |
| 30 µM | Nc1ncc(Cc2cccc(Oc3ccccc3)c2)c(N)n1 |
| 3 µM | COc1cc(Cc2c(C)nc(N)nc2N)ccc1OCc1ccccc1 |
| 2 µM | C=C[C@H]1CN2CCc3c([nH]c4ccc(O)cc34)[C@@H]2C[C@@H]1C[C@H]1c2[nH]c3ccccc3c2CCN1C |
| 5 µM | CC[C@H]1CN2CCc3c([nH]c4cc(O)ccc34)[C@@H]2C[C@@H]1C[C@H]1c2[nH]c3ccccc3c2CCN1C |
| 3 µM | COc1cc(NC(C)CCCN)c2nccc(C)c2c1OCc1ccc(C(F)(F)F)cc1 (stereo not drawn) |
| 2 µM | COc1cc(NC(C)CCCN)c2nccc(C)c2c1OCc1cccc(C(F)(F)F)c1 (stereo not drawn) |
| 5 µM | COc1cc(NC(C)CCCN)c2nccc(C)c2c1OCCCCCc1ccccc1 (stereo not drawn) |
| 174 µM | COc1cc(NC(C)CCCN)c2nccc(C)c2c1OCCCCc1ccccc1 (stereo not drawn) |
| 38 µM | CCCCCCOc1c(OC)cc(NC(C)CCCN)c2nc(OC)c(C)cc12 (stereo not drawn) |
| 3 µM | COc1cc(NC(C)CCCN)c2nccc(C)c2c1OCCCCCc1cccs1 (stereo not drawn) |
| 38 µM | N/C(=N\O)c1cc(O)c(O)c(O)c1 |
| 589 µM | N/C(=N\O)c1cc(O)cc(O)c1 |
| 2010 µM | COc1cc(/C(N)=N/O)cc(OC)c1OC |
| 301 µM | CC(=O)C(N)c1cc(O)c(O)c(O)c1 (stereo not drawn) |
| 9 µM | CC1(C)Oc2c(c3nc4ccccc4nc3c3ccccc23)CC1Br (stereo not drawn) |
| 3 µM | Nc1ncc(Cc2ccc(OCc3ccccc3)c(OCc3ccccc3)c2)c(N)n1 |
| 5 µM | COc1cc(Cc2cnc(N)nc2N)ccc1OCc1ccccc1 |
| 31 µM | COc1cc(Cc2cnc(N)nc2N)ccc1OCc1cc(OC)c(OC)c(OC)c1 |
| 3 µM | Nc1ncc(Cc2cccc(OCc3ccccc3)c2)c(N)n1 |
| 3 µM | Cc1nc(N)nc(N)c1Cc1ccc(OCc2ccccc2)c(OCc2ccccc2)c1 |
| 9 µM | CC(C)=CCc1c(O)c2ccccc2c2nc3ccccc3nc12 |
| 8 µM | Nc1nc(N)c(-c2cccc(Cl)c2)c(CCCOC(=O)c2ccccc2)n1 |

| IC50 | SMILES |
| --- | --- |
| 2 µM | Nc1nc(N)c(-c2cccc(Cl)c2)c(CCCOC(=O)OCc2ccccc2)n1 |
| 21 µM | COc1cc(COc2ccc(Cc3cnc(N)nc3N)cc2)cc(OC)c1OC |
| 1 µM | c1ccc(N2CCN(c3ccccc3)C2c2ccc(N3CCN(c4ccc(C5N(c6ccccc6)CCN5c5ccccc5)cc4)CC3)cc2)cc1 |
| 1 µM | Nc1nc(N)c(-c2cccc(Cl)c2)c(CCCO)n1 |
| 2 µM | CC(=O)OCCCc1nc(N)nc(N)c1-c1cccc(Cl)c1 |
| 21 µM | Nc1ncc(Cc2ccc(OCc3ccccc3)cc2)c(N)n1 |
| 1 µM | c1cc(N2CCN(c3ccc(C4OCCO4)cc3)CC2)ccc1C1OCCO1 |
| 200 µM | O=P(O)(O)C(NC1CCCCC1)P(=O)(O)O [(CYCLOHEXYLAMINO)METHYLENEDIPHOSPHONIC ACID] |
| 200 µM | O=P(O)(O)C(NC1CCCC1)P(=O)(O)O [(CYCLOPENTYLAMINO)METHYLENEDIPHOSPHONIC ACID] |
| 200 µM | CC(C)CCNC(P(=O)(O)O)P(=O)(O)O [(ISOPENTYLAMINO)METHYLENEDIPHOSPHONIC ACID] |
| 1030 µM | CC(=O)NO [ACETOHYDROXAMIC ACID] |
| 4 µM | O=C1Cc2c([nH]c3ccc([N+](=O)[O-])cc23)-c2ccccc2N1 [ALSTERPAULLONE] |
| 134 µM | CC(CCCN)Nc1ccnc2cc(Cl)ccc12 (stereo not drawn) [BIDESETHYL CHLOROQUINE] |
| 9 µM | CC(C)NC(=N)NC(=N)Nc1ccc(Cl)c(Cl)c1 [CHLORPROGUANIL] |
| 28 µM | CN(C)CCCN1c2ccccc2Sc2ccc(Cl)cc21 [CHLORPROMAZINE] |
| 18 µM | Nc1ccc(S(=O)(=O)c2ccc(N)cc2)cc1 [DAPSONE] |
| 12 µM | CNCCCN1c2ccccc2CCc2ccccc21 [DESIPRAMINE] |
| 185 µM | CCCCN(CCCC)CCC(O)c1cc2c(Cl)cc(Cl)cc2c2cc(C(F)(F)F)ccc12 (stereo not drawn) [HALOFANTRINE] |
| 792 µM | NC(=O)NO [HYDROXYUREA] |
| 6 µM | C=C[C@@H]1CN2CC[C@@]3(CNc4cc(O)ccc43)[C@@H]2C[C@@H]1C[C@H]1c2[nH]c3ccccc3c2CCN1C [ISOSTRYCHNOFOLINE] |
| 4 µM | O=C1Cc2c([nH]c3ccc(Br)cc23)-c2ccccc2N1 [KENPAULLONE] |
| 28 µM | C=C(C)[C@@H]1CC[C@]2(C)CC[C@]3(C)[C@H](CC[C@@H]4[C@@]5(C)CC[C@H](O)C(C)(C)[C@@H]5CC[C@]43C)[C@@H]12 [LUPEOL] |
| 245 µM | CNCC(O)CC12CCC(c3ccccc31)c1ccccc12 (stereo not drawn) [OXAPROTILINE] |
